Literature values in PMC6650409, “Modeling the binding of diverse ligands within the Ah receptor ligand binding domain” (Scientific Reports, 2019).
Changes are numbered by the printed parent chain.

Legend:
Parameters in all cases: method as in PMID 21981577
[1] = molecular target: T1, M334A mutant AhR (Mus musculus, UniProt P30561, M334A); settings: M334A mutation; cited from earlier work
T1 construct: made in house; host or cells: in vitro, Promega TNT Quick rabbit reticulocyte lysate
T1 sequence (P30561 10-848 M334A): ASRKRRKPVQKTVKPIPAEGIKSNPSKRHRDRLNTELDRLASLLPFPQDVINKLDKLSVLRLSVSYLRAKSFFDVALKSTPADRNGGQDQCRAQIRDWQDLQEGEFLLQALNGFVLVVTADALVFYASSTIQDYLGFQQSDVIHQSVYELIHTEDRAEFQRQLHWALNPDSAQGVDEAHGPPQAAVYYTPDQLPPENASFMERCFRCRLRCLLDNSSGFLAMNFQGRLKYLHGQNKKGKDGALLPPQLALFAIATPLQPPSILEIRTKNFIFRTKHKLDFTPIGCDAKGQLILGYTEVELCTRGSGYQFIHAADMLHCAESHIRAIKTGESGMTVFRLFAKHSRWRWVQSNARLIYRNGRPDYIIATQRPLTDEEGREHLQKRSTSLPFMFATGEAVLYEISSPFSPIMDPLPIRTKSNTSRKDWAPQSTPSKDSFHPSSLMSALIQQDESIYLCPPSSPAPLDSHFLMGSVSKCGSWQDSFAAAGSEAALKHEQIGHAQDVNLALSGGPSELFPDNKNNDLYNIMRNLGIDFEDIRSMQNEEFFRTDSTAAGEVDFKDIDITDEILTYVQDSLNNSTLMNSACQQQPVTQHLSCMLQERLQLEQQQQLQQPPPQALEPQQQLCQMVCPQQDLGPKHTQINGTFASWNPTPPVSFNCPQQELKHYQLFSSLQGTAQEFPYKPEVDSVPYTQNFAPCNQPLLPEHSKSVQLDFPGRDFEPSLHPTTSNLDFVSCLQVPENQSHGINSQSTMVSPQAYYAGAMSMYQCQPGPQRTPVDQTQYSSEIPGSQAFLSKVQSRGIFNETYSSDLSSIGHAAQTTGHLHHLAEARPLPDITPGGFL

[2] = molecular target: T2, C327A mutant AhR (Mus musculus, UniProt P30561, C327A); settings: C327A mutation; cited from earlier work
T2 construct: made in house; host or cells: in vitro, Promega TNT Quick rabbit reticulocyte lysate
T2 sequence (P30561 10-848 C327A): T1 sequence (P30561 10-848 M334A) with C318A, A325M

[3] = molecular target: T3, S359A mutant AhR (Mus musculus, UniProt P30561, S359A); settings: S359A mutation; cited from earlier work
T3 construct: made in house; host or cells: in vitro, Promega TNT Quick rabbit reticulocyte lysate
T3 sequence (P30561 10-848 S359A): T1 sequence (P30561 10-848 M334A) with A325M, S350A

[4] = molecular target: T4, L309A mutant AhR (Mus musculus, UniProt P30561, L309A); settings: L309A mutation; cited from earlier work
T4 construct: made in house; host or cells: in vitro transcription/translation (rabbit reticulocyte lysate)
T4 sequence (P30561 10-848 L309A): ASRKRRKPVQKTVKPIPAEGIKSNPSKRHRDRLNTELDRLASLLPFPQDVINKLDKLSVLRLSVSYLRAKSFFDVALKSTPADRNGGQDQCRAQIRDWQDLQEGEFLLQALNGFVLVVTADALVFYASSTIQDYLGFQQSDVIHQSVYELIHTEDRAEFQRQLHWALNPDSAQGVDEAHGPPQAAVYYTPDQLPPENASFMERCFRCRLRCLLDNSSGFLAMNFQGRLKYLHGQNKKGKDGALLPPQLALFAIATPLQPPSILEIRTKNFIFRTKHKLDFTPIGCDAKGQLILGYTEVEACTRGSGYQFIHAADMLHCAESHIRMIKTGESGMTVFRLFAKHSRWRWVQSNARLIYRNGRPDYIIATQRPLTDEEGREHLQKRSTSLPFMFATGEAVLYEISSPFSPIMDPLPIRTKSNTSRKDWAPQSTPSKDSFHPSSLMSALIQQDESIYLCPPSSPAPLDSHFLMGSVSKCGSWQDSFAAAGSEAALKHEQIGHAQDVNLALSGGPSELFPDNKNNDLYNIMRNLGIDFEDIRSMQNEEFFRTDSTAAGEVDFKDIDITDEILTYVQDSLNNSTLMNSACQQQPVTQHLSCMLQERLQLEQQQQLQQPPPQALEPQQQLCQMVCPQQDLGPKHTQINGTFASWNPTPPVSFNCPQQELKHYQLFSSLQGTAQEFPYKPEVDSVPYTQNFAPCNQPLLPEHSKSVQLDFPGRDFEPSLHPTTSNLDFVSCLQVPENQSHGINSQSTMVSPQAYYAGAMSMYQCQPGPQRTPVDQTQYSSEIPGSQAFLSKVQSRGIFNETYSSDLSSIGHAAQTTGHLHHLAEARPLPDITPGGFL
T4 sequence (P53762 whole entry partner): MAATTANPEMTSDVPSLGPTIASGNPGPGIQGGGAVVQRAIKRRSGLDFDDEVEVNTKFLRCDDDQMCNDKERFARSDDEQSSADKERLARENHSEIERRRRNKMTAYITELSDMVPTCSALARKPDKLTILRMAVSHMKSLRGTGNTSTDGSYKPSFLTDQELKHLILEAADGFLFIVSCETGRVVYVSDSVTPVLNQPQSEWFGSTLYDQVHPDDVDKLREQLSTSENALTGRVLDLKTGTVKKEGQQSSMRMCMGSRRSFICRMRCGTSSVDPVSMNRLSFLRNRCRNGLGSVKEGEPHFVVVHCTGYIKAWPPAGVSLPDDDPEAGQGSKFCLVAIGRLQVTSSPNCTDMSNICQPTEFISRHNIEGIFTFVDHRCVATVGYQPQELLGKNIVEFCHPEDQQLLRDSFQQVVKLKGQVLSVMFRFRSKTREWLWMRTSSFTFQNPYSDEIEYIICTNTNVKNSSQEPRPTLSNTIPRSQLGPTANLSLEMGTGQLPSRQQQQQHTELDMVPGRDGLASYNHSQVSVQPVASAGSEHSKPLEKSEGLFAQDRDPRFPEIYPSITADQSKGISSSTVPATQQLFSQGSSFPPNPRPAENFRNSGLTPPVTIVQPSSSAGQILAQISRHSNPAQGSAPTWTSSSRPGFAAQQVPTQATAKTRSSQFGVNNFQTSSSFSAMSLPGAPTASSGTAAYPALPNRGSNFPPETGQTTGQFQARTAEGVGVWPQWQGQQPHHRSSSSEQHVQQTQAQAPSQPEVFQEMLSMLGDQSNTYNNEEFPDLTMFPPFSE

In the case of `Clc1cc2c(cc1Cl)Oc1cc(Cl)c(Cl)cc1O2` [TCDD, 2,3,7,8-tetrachlorodibenzo-p-dioxin], the TCDD binding activity [1] is listed as “only partially affected”, the TCDD binding activity [2] is listed as “only partially affected” and the TCDD binding activity [3] is listed as “only partially affected”. For the same compound, the TCDD binding activity [4] was “dramatically reduced”.
